Measurements taken from patent US10040802B2, “Thienopyrazine inhibitors of IRAK4 activity” (MERCK SHARP & DOHME CORP., priority 2015, dated 2018).
Where a name gives a salt, the structure may show the parent alone.

Biological target: GST tagged IRAK4 (Homo sapiens (Human), UniProt Q9NWZ3)
Assay: IRAK4 Kinase Assay (IMAP fluorescence polarization)
Type: biochemical
Settings: 0.5 nM GST tagged IRAK4, 100 μM ATP, 30 minutes at 25° C.
Experimental: The kinase activity of IRAK4 is determined by its ability to catalyze the phosphorylation of a fluorescent polypeptide substrate. The extent of phosphorylation is measured using the IMAP technology (Molecular Devices) where the phosphorylated fluorescent substrate binds to the large M(III)-based nanoparticles which reduces the rotational speed of the substrate and thus increases its fluorescent polarization (FP).
20 μL reaction mixture contains 10 mM TriHCl, pH 7.2, 0.5 nM GST tagged IRAK4 (SignalChem), 100 nM fluorescent peptide substrate (RP7030, Molecular Devices), 100 μM ATP, 1 mM DDT, 1 mM MgCl2, and 0.01% Tween 20. The reaction is initiated by the addition of ATP. After incubation for 30 minutes at 25° C., 60 μL of Progressive IMAP Reagent (Molecular Devices) is added to stop the reaction. Change in RP7030's FP is determined by a FP reader (Analyst HT, LJL BioSystems).

GST tagged IRAK4, sequence (Q9NWZ3 whole entry): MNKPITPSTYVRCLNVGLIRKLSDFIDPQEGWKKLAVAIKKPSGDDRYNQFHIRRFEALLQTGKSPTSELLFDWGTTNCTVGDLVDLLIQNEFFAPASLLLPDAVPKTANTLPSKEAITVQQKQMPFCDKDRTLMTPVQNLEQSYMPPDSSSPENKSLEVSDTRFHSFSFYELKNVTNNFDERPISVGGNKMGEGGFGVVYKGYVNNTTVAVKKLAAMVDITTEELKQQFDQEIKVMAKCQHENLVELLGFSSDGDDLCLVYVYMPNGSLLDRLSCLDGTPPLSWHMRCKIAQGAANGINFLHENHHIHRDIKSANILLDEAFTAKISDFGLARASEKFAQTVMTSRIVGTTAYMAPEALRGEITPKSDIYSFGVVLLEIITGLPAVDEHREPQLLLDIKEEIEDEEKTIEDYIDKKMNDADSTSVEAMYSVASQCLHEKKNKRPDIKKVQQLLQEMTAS

Row | Compound | IC50 [nM]
1 | N#Cc1ccccc1NC(=O)c1csc2ncc(N3C[C@H]4CC[C@@H]3CN4)nc12 (single isomer, unassigned) [Example 98, N-(2-cyanophenyl)-2-[(1S,4S)- or (1R,4R)-2,5-diazabicyclo-[2.2.2]oct-2-yl]thieno[2,3-b]-pyrazine-7-carboxamide trifluoroacetate] | 251
2 | O=C(Nc1cscc1Cl)c1csc2ncc(N3CCCNCC3)nc12 [Example 107, N-(4-chlorothiophen-3-yl)-2-(1,4-diazepan-1-yl)-thieno[2,3-b]-pyrazine-7-carboxamide trifluoroacetate] | 151
3 | O=C(Nc1ccsc1Br)c1csc2ncc(N3CCCNCC3)nc12 [Example 51, N-(2-bromothiophen-3-yl)-2-(1,4-diazepan-1-yl)thieno[2,3-b] pyrazine-7-carboxamide trifluoroacetate] | 1160
4 | O=C(Nc1ccccc1Cl)c1csc2ncc(N3CCCNCC3)nc12 [Example 91, N-(2-chlorophenyl)-2-(1,4-diazepan-1-yl)thieno[2,3-b]-pyrazine-7-carboxamide trifluoroacetate] | 595
5 | O=C(Nc1ccsc1C(F)(F)F)c1csc2ncc(N3C[C@@H]4CC[C@H]3CN4)nc12 (single isomer, unassigned) [Example 74, 2-[(1S,4S)- or (1R,4R)-2,5-diazabicyclo [2.2.2]oct-2-yl]-N-[2-(trifluoromethyl)thiophen-3-yl] thieno[2,3-b] pyrazine-7-carboxamide trifluoroacetate] | 3650
6 | N#Cc1cscc1NC(=O)c1csc2ncc(N3CCCNCC3)nc12 [Example 55, N-(4-cyanothiophen-3-yl)-2-(1,4-diazepan-1-yl)thieno[2,3-b] pyrazine-7-carboxamide trifluoroacetate] | 189
7 | O=C(Nc1cscc1Cl)c1csc2ncc(N3C[C@@H]4CC[C@H]3CN4)nc12 (single isomer, unassigned) [Example 108, N-(4-chlorothiophen-3-yl)-2-[(1S,4S)- or (1R,4R)-2,5-diazabicyclo-[2.2.2]oct-2-yl]-thieno[2,3-b]-pyrazine-7-carboxamide trifluoroacetate] | 307
8 | Cn1cc(NC(=O)c2csc3ncc(N4CCNCC5(CC5)C4)nc23)c(C(F)(F)F)n1 [Example 8, 2-(5,8-diazaspiro[2.6]non-5-yl)-N-[1-methyl-3-(trifluoromethyl)-1H-pyrazol-4-yl] thieno[2,3-b] pyrazine-7-carboxamide trifluoroacetate] | 18
9 | N#Cc1cscc1NC(=O)c1csc2ncc(N3C[C@@H]4CC[C@H]3CN4)nc12 (single isomer, unassigned) [Example 65, N-(4-cyanothiophen-3-yl)-2-[(1S,4S)- or (1R,4R)-2,5-diazabicylo[2.2.2]oct-2-yl]thieno[2,3-b] pyrazine-7-carboxamide formate] | 310
10 | N#Cc1ccccc1NC(=O)c1csc2ncc(N[C@@H]3CCCC(F)(F)[C@@H]3N)nc12 [Example 105, 2-{[(1R,2R)-2-amino-3,3-difluorocyclohexyl]-amino}-N-(2-cyanophenyl)-thieno[2,3-b]-pyrazine-7-carboxamide trifluoroacetate] | 146
11 | Cn1cc(NC(=O)c2csc3ncc(N4CC5CCC(C4)N5)nc23)c(C(F)F)n1 [Example 40, 2-(3,8-diazabicyclo[3.2.1]oct-3-yl)-N-[3-(difluoromethyl)-1-methyl-1H-pyrazol-4-yl]thieno[2,3-b] pyrazine-7-carboxamide trifluoroacetate] | 0.6
12 | O=C(Nc1ccccc1Br)c1csc2ncc(N3CCCNCC3)nc12 [Example 82, N-(2-bromophenyl)-2-(1,4-diazepan-1-yl)thieno[2,3-b]pyrazine-7-carboxamide trifluoroacetate] | 2340
13 | O=C(Nc1cscc1Br)c1csc2ncc(N3C[C@@H]4CC[C@H]3CN4)nc12 (single isomer, unassigned) [Example 46, N-(4-bromothiophen-3-yl)-2-[(1S,4S)- or (1R,4R)-2,5-diazabicyclo[2.2.2]oct-2-yl]thieno[2,3-b] pyrazine-7-carboxamide] | 812
14 | N#Cc1ccccc1NC(=O)c1csc2ncc(N[C@@H]3CCCCNC3)nc12 (single isomer, unassigned) [Example 94, 2-[(3S)- or (3R)-azepan-3-ylamino]-N-(2-cyanophenyl)-thieno[2,3-b]-pyrazine-7-carboxamide trifluoroacetate] | 9
15 | O=C(Nc1ccccc1Cl)c1csc2ncc(N3C[C@@H]4CC[C@H]3CN4)nc12 (single isomer, unassigned) [Example 99, N-(2-chlorophenyl)-2-[(1S,4S)- or (1R,4R)-2,5-diazabicyclo-[2.2.2]oct-2-yl]thieno[2,3-b]-pyrazine-7-carboxamide trifluoroacetate] | 1560
16 | N[C@H]1CCCC[C@H]1Nc1cnc2scc(C(=O)Nc3ccsc3Cl)c2n1 [Example 56, 2-{[(1R,2S)-2-amino-cyclohexyl]amino}-N-(2-chlorothiophen-3-yl)thieno[2,3-b] pyrazine-7-carboxamide trifluoroacetate] | 0.6
17 | Cn1cc(NC(=O)c2csc3ncc(N4C[C@@H]5CC[C@H]4CN5)nc23)c(C#N)n1 (single isomer, unassigned) [Example 26, N-(3-cyano-1-methyl-1H-pyrazol-4-yl)-2-[(1S,4S)- or (1R,4R)-2,5-diazabicyclo[2.2.2]oct-2-yl]thieno[2,3-b] pyrazine-7-carboxamide trifluoroacetate] | 46
18 | O=C(Nc1ccccc1Br)c1csc2ncc(N3C[C@H]4CC[C@@H]3CN4)nc12 (single isomer, unassigned) [Example 89, N-(2-bromophenyl)-2-[(1S,4S)- or (1R,4R)-2,5-diazabicyclo-[2.2.2]oct-2-yl]thieno[2,3-b]-pyrazine-7-carboxamide trifluoroacetate] | 612
19 | Cn1cc(NC(=O)c2csc3ncc(N[C@@H]4CCCC[C@@H]4O)nc23)c(C(F)(F)F)n1 [Example 3, 2-{[(1R,2S)-2-hydroxycyclohexyl]amino}-N-[1-methyl-3-(trifluoromethyl)-1H-pyrazol-4-yl] thieno[2,3-b] pyrazine-7-carboxamide trifluoroacetate] | 100
20 | O=C(Nc1cscc1C(F)F)c1csc2ncc(N3C[C@@H]4CC[C@H]3CN4)nc12 (single isomer, unassigned) [Example 58, 2-[(1S,4S)- or (1R,4R)-2,5-diazabicyclo [2.2.2]oct-2-yl]-N-[4-(difluoromethyl)thiophen-3-yl] thieno[2,3-b] pyrazine-7-carboxamide trifluoroacetate] | 285
21 | Cn1cc(NC(=O)c2csc3ncc(N4CCCNCC4)nc23)c(Cl)n1 [Example 18, N-(3-chloro-1-methyl-1H-pyrazol-4-yl)-2-(1,4-diazepan-1-yl)thieno[2,3-b] pyrazine-7-carboxamide trifluoroacetate] | 14
22 | Cn1cc(NC(=O)c2csc3ncc(N4C5CCC4CNC5)nc23)c(C(F)F)n1 [Example 44, 2-(3,8-diazabicyclo[3.2.1]oct-8-yl)-N-[3-(difluoromethyl)-1-methyl-1H-pyrazol-4-yl]thieno[2,3-b] pyrazine-7-carboxamide trifluoroacetate] | 0.5
23 | N[C@@H]1[C@H](Nc2cnc3scc(C(=O)Nc4ccccc4Br)c3n2)CCCC1(F)F [Example 96, 2-{[(1R,2R)-2-amino-3,3-difluorocyclo-hexyl]amino}-N-(2-bromo-phenyl)thieno-[2,3-b]-pyrazine-7-carboxamide] | 2010
